According to patent US20240424146A1, “DRUG SCREENING METHOD AND MODEL FOR MONITORING PLATINUM-RESISTANT OVARIAN CANCER TUMOR GROWTH AND METASTASES” (THE BOARD OF REGENTS OF THE UNIVERSITY OF OKLAHOMA, priority 2023, published 2024):

Test system: OVCAR-8 CPR Luc cells
Experiment: cisplatin dose response, cell viability by MTS assay
Assay type: cell-based, human
Details: non-linear regression, FIG. 1
Description: Cells were treated with increasing doses of cisplatin and cell viability was measured using the MTS assay. IC50 values were calculated using non-linear regression analysis in GraphPad Prism software.
Next, we confirmed that these cells retained their inherent response to cisplatin. […] To determine if luciferase activity could be visualized in vitro we plated the OVCAR-8 CPR Luc cells in 2-dimensional (2D) adherent and suspended three-dimensional (3D) spheroid conditions.

Question: `N.N.[Cl][Pt][Cl]` [cisplatin] was tested. Which “IC50 of OVCAR-8 CPR Luc cells to cisplatin relative to cisplatin-sensitive cells (OVCAR-8 Luc)” value did it give?
Answer: twice
